Test results taken from patent US11040954B1, “CXCR3 receptor agonists” (RECEPTOS LLC, priority 2016, dated 2021).
Like-named read-outs stand apart in the source and are kept apart here.

Molecular target: T1, CXCR3 (Homo sapiens, UniProt P49682)
T1 construct: host or cells: CHO-K1 (cAMP Hunter CHOK1 CXCR3 Gi cell line)
T1 sequence (P49682 1-368): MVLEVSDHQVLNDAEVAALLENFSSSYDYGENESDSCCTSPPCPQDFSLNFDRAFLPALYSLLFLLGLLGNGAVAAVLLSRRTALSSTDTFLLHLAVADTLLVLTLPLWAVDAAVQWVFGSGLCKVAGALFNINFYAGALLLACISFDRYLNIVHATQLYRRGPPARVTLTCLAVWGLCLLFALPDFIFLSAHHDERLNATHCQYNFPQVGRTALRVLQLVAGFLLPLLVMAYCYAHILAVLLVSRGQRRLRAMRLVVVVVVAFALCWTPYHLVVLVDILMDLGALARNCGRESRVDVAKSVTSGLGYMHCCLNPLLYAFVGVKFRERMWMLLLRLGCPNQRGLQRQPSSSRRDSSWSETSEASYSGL
Test: CXCR3 cAMP agonist assay (cAMP Hunter CHOK1 CXCR3 Gi cell line, forskolin-stimulated, HitHunter cAMP detection)
Type: cell-based
Summary of the method: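 Agonist activity was measured as suppression of forskolin (20 μM)-induced cAMP, read by luminescent enzyme-fragment complementation with a cAMP standard curve and CXCL11 defining full efficacy. Assay used 50,000 CXCR3 Gi CHOK1 cells/well in pH 7.4 HEPES-buffered HBSS with 0.1% BSA, compound 0-10 μM over 12 points, 30 min incubation.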

[1] = cAMP Hunter CHOK1 CXCR3 Gi cells, 20 μM forskolin, 30 minutes, read-out: Activity (CXCR3 cAMP agonist assay compound EC50)

Structure (SMILES)	EC50 [1] [nM]	EC50 [nM]
Cc1cc(NC(=O)[C@H](CCN)NC(=O)[C@@H]2Cc3ccccc3CN2C(=O)CCC(=O)N2CCCC2C(F)(F)F)ccc1Cl (stereo partly drawn) [Compound 12-51]	< 50	–
Cc1cc(NC(=O)[C@H](CCN)NC(=O)[C@@H]2Cc3ccccc3CN2C(=O)CCC(=O)N2CCC(C(F)(F)F)C2)ccc1Cl (stereo partly drawn) [Compound 12-52]	< 50	–
Cc1cc(NC(=O)[C@H](CCN)NC(=O)[C@@H]2Cc3ccccc3CN2C(=O)CCC(=O)N2CCCC2c2ccccc2)ccc1Cl (stereo partly drawn) [Compound 12-53]	< 50	–
Cc1cc(NC(=O)[C@H](CCN)NC(=O)[C@@H]2Cc3ccccc3CN2C(=O)CCC(=O)N2CCC(c3ccccc3)C2)ccc1Cl (stereo partly drawn) [Compound 12-54]	50 to 250	–
Cc1cc(NC(=O)[C@H](CCN)NC(=O)[C@@H]2Cc3ccccc3CN2C(=O)CCC(=O)N2CC3CCCCC3C2)ccc1Cl (stereo partly drawn) [Compound 12-55]	< 50	–
Cc1cc(NC(=O)[C@H](CCN)NC(=O)[C@@H]2Cc3ccccc3CN2C(=O)CCC(=O)N2CCCC[C@@H]2C)ccc1Cl [Compound 12-56]	< 50	–
Cc1cc(NC(=O)[C@H](CCN)NC(=O)[C@@H]2Cc3ccccc3CN2C(=O)CCC(=O)N2CCC[C@@H](C)C2)ccc1Cl [Compound 12-57]	< 50	–
Cc1cc(NC(=O)[C@H](CCN)NC(=O)[C@@H]2Cc3ccccc3CN2C(=O)CCC(=O)N2CCC[C@H](C)C2)ccc1Cl [Compound 12-58]	< 50	–
Cc1cc(NC(=O)[C@H](CCN)NC(=O)[C@@H]2Cc3ccccc3CN2C(=O)CCC(=O)N2CCC3(CCC3)CC2)ccc1Cl [Compound 12-59]	< 50	–
Cc1cc(NC(=O)[C@H](CCN)NC(=O)[C@@H]2Cc3ccccc3CN2C(=O)CCC(=O)N2CCC(C(C)C)CC2)ccc1Cl [Compound 12-60]	< 50	–
CCC1CCN(C(=O)CCC(=O)N2Cc3ccccc3C[C@H]2C(=O)N[C@@H](CCN)C(=O)Nc2ccc(Cl)c(C)c2)CC1 [Compound 12-61]	< 50	–
Cc1cc(NC(=O)[C@H](CCN)NC(=O)[C@@H]2Cc3ccccc3CN2C(=O)CCC(=O)N2CCCC(O)C2)ccc1Cl (stereo partly drawn) [Compound 12-62]	< 50	–
Cc1cc(NC(=O)[C@H](CCN)NC(=O)[C@@H]2Cc3ccccc3CN2C(=O)CCC(=O)N2CCCC(F)C2)ccc1Cl (stereo partly drawn) [Compound 12-63]	< 50	–
COC1CCN(C(=O)CCC(=O)N2Cc3ccccc3C[C@H]2C(=O)N[C@@H](CCN)C(=O)Nc2ccc(Cl)c(C)c2)C1 (stereo partly drawn) [Compound 12-64]	< 50	–
CC[C@@H]1CCCN1C(=O)CCC(=O)N1Cc2ccccc2C[C@H]1C(=O)N[C@@H](CCN)C(=O)Nc1ccc(Cl)c(C)c1 [Compound 12-65]	< 50	–
Cc1cc(NC(=O)[C@H](CCN)NC(=O)[C@@H]2Cc3ccccc3CN2C(=O)CCC(=O)N2CC3CC(C3)C2)ccc1Cl [Compound 12-66]	< 50	–
Cc1cc(NC(=O)[C@H](CCN)NC(=O)[C@@H]2Cc3ccccc3CN2C(=O)CCC(=O)N2CCC(F)CC2)ccc1Cl [Compound 12-67]	< 50	–
Cc1cc(NC(=O)[C@H](CCN)NC(=O)[C@@H]2Cc3ccccc3CN2C(=O)CCC(=O)N2CC(C)C(C)C2)ccc1Cl (stereo partly drawn) [Compound 12-68]	< 50	–
Cc1cc(NC(=O)[C@H](CCN)NC(=O)[C@@H]2Cc3ccccc3CN2C(=O)CCC(=O)N2CCC3(CC3)C2)ccc1Cl [Compound 12-69]	< 50	–
Cc1cc(NC(=O)[C@H](CCN)NC(=O)[C@@H]2Cc3ccccc3CN2C(=O)CCC(=O)N2CCC(C#N)C2)ccc1Cl (stereo partly drawn) [Compound 12-70]	50 to 250	–
Cc1cc(NC(=O)[C@H](CCN)NC(=O)[C@@H]2Cc3ccccc3CN2C(=O)CCC(=O)N2CCCC2C(C)C)ccc1Cl (stereo partly drawn) [Compound 12-71]	< 50	–
Cc1cc(NC(=O)[C@H](CCN)NC(=O)[C@@H]2Cc3ccccc3CN2C(=O)CCC(=O)N2CCCCC23CCC3)ccc1Cl [Compound 12-72]	< 50	–
Cc1cc(NC(=O)[C@H](CCN)NC(=O)[C@@H]2Cc3ccccc3CN2C(=O)CCC(=O)N2CCCC23CCC3)ccc1Cl [Compound 12-73]	< 50	–
Cc1cc(NC(=O)[C@H](CCN)NC(=O)[C@@H]2Cc3ccccc3CN2C(=O)CCC(=O)N2CCC(C(C)C)C2)ccc1Cl (stereo partly drawn) [Compound 12-74]	< 50	–
Cc1cc(NC(=O)[C@H](CCN)NC(=O)[C@@H]2Cc3ccccc3CN2C(=O)CCC(=O)N2CCC(C(C)(C)C)C2)ccc1Cl (stereo partly drawn) [Compound 12-75]	< 50	–
Cc1cc(NC(=O)[C@H](CCN)NC(=O)[C@@H]2Cc3ccccc3CN2C(=O)CCC(=O)N2CCc3ccccc3C2)ccc1Cl [Compound 12-76]	< 50	–
Cc1cc(NC(=O)[C@H](CCN)NC(=O)[C@@H]2Cc3ccccc3CN2C(=O)CCC(=O)N2CCCC2C#N)ccc1Cl (stereo partly drawn) [Compound 12-77]	< 50	–

Structure (SMILES)	EC50 [1] [nM]	EC50 [nM]
Cc1cc(NC(=O)[C@H](CCN)NC(=O)[C@@H]2Cc3ccccc3CN2C(=O)CCC(=O)N2CCCC3(CCC3)C2)ccc1Cl [Compound 12-78]	< 50	–
Cc1cc(NC(=O)[C@H](CCN)NC(=O)[C@@H]2Cc3ccccc3CN2C(=O)CCC(=O)N2CCCC(F)(F)C2)ccc1Cl [Compound 12-79]	< 50	–
Cc1cc(NC(=O)[C@H](CCN)NC(=O)[C@@H]2Cc3ccccc3CN2C(=O)CCC(=O)NCCC(C)C)ccc1Cl [Compound 12-80]	< 50	–
Cc1cc(NC(=O)[C@H](CCN)NC(=O)[C@@H]2Cc3ccccc3CN2C(=O)CCC(=O)Nc2ccccc2)ccc1Cl [Compound 12-81]	< 50	–
Cc1cc(NC(=O)[C@H](CCN)NC(=O)[C@@H]2Cc3ccccc3CN2C(=O)CCC(=O)NC2CC2(F)F)ccc1Cl (stereo partly drawn) [Compound 12-82]	250 to 500	–
Cc1cc(NC(=O)[C@H](CCN)NC(=O)[C@@H]2Cc3ccccc3CN2C(=O)CCC(=O)NC(C)(C)C)ccc1Cl [Compound 12-83]	50 to 250	–
Cc1cc(NC(=O)[C@H](CCN)NC(=O)[C@@H]2Cc3ccccc3CN2C(=O)CCC(=O)N2CCCCC2C#N)ccc1Cl (stereo partly drawn) [Compound 12-84]	< 50	–
Cc1cc(NC(=O)[C@H](CCN)NC(=O)[C@@H]2Cc3ccccc3CN2C(=O)CCC(=O)NC2(C(F)(F)F)CC2)ccc1Cl [Compound 12-85]	> 500	–
Cc1cc(NC(=O)[C@H](CCN)NC(=O)[C@@H]2Cc3ccccc3CN2C(=O)CCC(=O)N2CCC(=O)CC2)ccc1Cl [Compound 12-86]	–	250 to 500
Cc1cc(NC(=O)[C@H](CCN)NC(=O)[C@@H]2Cc3ccccc3CN2C(=O)CCC(=O)N2CCC(C(C)(C)C)CC2)ccc1Cl [Compound 12-87]	< 50	–
Cc1cc(NC(=O)[C@H](CCN)NC(=O)[C@@H]2Cc3ccccc3CN2C(=O)CCC(=O)NCCOC(C)C)ccc1Cl [Compound 12-89]	> 500	–
Cc1cc(NC(=O)[C@H](CCN)NC(=O)[C@@H]2Cc3ccccc3CN2C(=O)CCC(=O)NCCC(F)(F)F)ccc1Cl [Compound 12-90]	50 to 250	–
Cc1cc(NC(=O)[C@H](CCN)NC(=O)[C@@H]2Cc3ccccc3CN2C(=O)CCC(=O)NCC(C)(C)C)ccc1Cl [Compound 12-91]	< 50	–
CCC(C)(C)NC(=O)CCC(=O)N1Cc2ccccc2C[C@H]1C(=O)N[C@@H](CCN)C(=O)Nc1ccc(Cl)c(C)c1 [Compound 12-92]	50 to 250	–
Cc1cc(NC(=O)[C@H](CCN)NC(=O)[C@@H]2Cc3ccccc3CN2C(=O)CCC(=O)N(C)C(C)(C)C)ccc1Cl [Compound 12-93]	< 50	–
Cc1cc(NC(=O)[C@H](CCN)NC(=O)[C@@H]2Cc3ccccc3CN2C(=O)CCC(=O)N2CCC3(CCC3)C2)ccc1Cl [Compound 12-94]	< 50	–
Cc1cc(NC(=O)[C@H](CCN)NC(=O)[C@@H]2Cc3ccccc3CN2C(=O)CCC(=O)N2CCC3CCCCC32)ccc1Cl (stereo partly drawn) [Compound 12-95]	< 50	–
Cc1cc(NC(=O)[C@H](CCN)NC(=O)[C@@H]2Cc3ccccc3CN2C(=O)CCC(=O)N2CCCC(C(C)C)C2)ccc1Cl (stereo partly drawn) [Compound 12-96]	< 50	–
CC[C@H]1CCCCN1C(=O)CCC(=O)N1Cc2ccccc2C[C@H]1C(=O)N[C@@H](CCN)C(=O)Nc1ccc(Cl)c(C)c1 [Compound 12-97]	< 50	–
Cc1cc(NC(=O)[C@H](CCN)NC(=O)[C@@H]2Cc3ccccc3CN2C(=O)CCC(=O)N(C)CCC(C)(C)C)ccc1Cl [Compound 12-98]	< 50	–
CCN1CCN(C(=O)CCC(=O)N2Cc3ccccc3C[C@H]2C(=O)N[C@@H](CCN)C(=O)Nc2ccc(Cl)c(C)c2)CC1 [Compound 12-99]	50 to 250	–
Cc1cc(NC(=O)[C@H](CCN)NC(=O)[C@@H]2Cc3ccccc3CN2C(=O)CCC(=O)N2CCN(c3ccccc3)CC2)ccc1Cl [Compound 12-101]	> 500	–
Cc1cc(NC(=O)[C@H](CCN)NC(=O)[C@@H]2Cc3ccccc3CN2C(=O)CCC(=O)N2CCN(C(C)(C)C)CC2)ccc1Cl [Compound 12-102]	50 to 250	–
Cc1cc(NC(=O)[C@H](CCN)NC(=O)[C@@H]2Cc3ccccc3CN2C(=O)CCC(=O)N2CCN(C)CC2(C)C)ccc1Cl [Compound 12-103]	< 50	–
CCC1CN(C(=O)CCC(=O)N2Cc3ccccc3C[C@H]2C(=O)N[C@@H](CCN)C(=O)Nc2ccc(Cl)c(C)c2)CCN1C (stereo partly drawn) [Compound 12-104]	< 50	–
Cc1cc(NC(=O)[C@H](CCN)NC(=O)[C@@H]2Cc3ccccc3CN2C(=O)CCC(=O)N2C3CCC2CN(C)C3)ccc1Cl [Compound 12-105]	> 500	–
CC(=O)N1CCN(C(=O)CCC(=O)N2Cc3ccccc3C[C@H]2C(=O)N[C@@H](CCN)C(=O)Nc2ccc(Cl)c(C)c2)CC1 [Compound 12-106]	250 to 500	–
